13 molecules from patent US11339130B1 (Blade Therapeutics, Inc., priority 2016, dated 2022) can be followed below.

SMILES strings stand for the structures.

The target of assay [1] is T1, Human Calpain 1/NS1 (Homo sapiens, UniProt P07384).
T1 sequence (P07384 1-714): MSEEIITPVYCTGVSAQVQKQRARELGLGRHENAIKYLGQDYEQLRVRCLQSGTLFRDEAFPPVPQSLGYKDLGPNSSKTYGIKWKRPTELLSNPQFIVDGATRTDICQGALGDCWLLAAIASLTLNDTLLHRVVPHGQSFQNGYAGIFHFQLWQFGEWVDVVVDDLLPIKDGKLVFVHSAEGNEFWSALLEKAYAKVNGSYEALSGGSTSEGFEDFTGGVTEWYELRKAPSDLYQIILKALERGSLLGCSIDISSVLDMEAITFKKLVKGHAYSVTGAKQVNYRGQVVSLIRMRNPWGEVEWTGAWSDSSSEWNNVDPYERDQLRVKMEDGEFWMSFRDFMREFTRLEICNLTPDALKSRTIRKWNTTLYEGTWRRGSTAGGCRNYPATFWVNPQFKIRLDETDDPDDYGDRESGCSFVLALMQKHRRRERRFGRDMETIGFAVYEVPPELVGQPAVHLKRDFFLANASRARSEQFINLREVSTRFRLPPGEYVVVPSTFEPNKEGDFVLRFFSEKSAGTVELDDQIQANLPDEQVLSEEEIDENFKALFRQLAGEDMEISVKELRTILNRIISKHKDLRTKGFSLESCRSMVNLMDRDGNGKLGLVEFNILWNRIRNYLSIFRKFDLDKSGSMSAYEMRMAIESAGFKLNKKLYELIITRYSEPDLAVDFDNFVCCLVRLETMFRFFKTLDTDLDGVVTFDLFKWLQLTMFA
T1 sequence (P04632 1-268 partner): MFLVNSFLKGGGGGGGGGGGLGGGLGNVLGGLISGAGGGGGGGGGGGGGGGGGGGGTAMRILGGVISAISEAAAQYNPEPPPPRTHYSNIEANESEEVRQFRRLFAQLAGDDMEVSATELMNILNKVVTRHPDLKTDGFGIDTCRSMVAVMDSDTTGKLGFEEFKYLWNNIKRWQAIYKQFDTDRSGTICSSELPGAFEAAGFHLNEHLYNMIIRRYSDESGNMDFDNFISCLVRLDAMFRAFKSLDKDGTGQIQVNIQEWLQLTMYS
Nature of the assay: Calpain inhibition continuous fluorescence (FRET) assay, Human Calpain 1/NS1. Format: biochemical. As to conditions: read-out: Human Calpain 1/NS1 IC50. The essentials: (§1)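 Human calpains 1, 2 and 9 preincubated with inhibitor at 25 °C in 50 mM Tris pH 7.5, 100 mM NaCl, 1 mM DTT; reaction started with 5-FAM/QXL 520 FRET peptide plus CaCl2 for activation. Fluorescence (490/520 nm) followed 10 min; rates from 1-5 min slopes fitted to 4-parameter logistic for IC50.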

Assay [2] concerns the target T2, Human Calpain 2/NS1 (Homo sapiens, UniProt P17655).
T2 sequence (P17655 1-700): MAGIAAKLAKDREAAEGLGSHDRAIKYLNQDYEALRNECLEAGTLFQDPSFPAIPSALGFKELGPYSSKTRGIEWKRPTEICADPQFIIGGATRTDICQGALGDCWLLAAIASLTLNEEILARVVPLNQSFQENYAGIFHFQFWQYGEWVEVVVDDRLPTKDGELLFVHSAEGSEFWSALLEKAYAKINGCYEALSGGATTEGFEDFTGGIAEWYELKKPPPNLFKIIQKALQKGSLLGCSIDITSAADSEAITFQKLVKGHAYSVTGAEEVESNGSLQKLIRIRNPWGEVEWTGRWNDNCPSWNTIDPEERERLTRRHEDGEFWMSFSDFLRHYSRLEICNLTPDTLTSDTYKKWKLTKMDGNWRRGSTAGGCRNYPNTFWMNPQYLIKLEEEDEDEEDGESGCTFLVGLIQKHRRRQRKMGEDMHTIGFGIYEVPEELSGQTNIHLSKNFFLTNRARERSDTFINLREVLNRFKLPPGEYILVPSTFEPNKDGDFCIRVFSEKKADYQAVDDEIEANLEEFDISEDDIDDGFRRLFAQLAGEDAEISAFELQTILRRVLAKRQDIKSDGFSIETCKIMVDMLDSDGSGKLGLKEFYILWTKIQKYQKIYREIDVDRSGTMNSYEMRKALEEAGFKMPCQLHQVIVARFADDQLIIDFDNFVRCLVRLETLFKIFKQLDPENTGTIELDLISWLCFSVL
T2 sequence (P04632 1-268 partner): T1 sequence (P04632 1-268 partner)
Nature of the assay: Calpain inhibition continuous fluorescence (FRET) assay, Human Calpain 2/NS1. The format is biochemical. The note with it: read-out: Human Calpain 2/NS1 IC50. The essentials:
as §1

Assay [3] has as its target T3, Human Calpain 9/NS1 (Homo sapiens, UniProt O14815).
T3 sequence (O14815 1-690): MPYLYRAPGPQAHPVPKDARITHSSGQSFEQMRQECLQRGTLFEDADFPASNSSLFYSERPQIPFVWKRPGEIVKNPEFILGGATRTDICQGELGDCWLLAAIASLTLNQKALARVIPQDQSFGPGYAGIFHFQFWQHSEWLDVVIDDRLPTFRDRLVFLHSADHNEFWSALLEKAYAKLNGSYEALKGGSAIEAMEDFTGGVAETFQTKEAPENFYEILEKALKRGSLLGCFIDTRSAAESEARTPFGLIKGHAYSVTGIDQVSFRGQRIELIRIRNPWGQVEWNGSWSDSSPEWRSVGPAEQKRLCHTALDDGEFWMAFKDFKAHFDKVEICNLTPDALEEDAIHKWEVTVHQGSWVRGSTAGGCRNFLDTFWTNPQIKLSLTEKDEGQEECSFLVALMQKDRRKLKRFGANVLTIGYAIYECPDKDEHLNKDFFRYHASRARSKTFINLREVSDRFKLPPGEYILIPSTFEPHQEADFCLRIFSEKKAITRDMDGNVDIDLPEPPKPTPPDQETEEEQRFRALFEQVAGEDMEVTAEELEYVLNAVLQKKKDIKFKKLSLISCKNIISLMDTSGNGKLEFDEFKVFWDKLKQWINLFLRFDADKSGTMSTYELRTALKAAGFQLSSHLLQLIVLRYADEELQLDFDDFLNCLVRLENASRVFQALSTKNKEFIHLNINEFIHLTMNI
T3 sequence (P04632 1-268 partner): T1 sequence (P04632 1-268 partner)
Put plainly: Calpain inhibition continuous fluorescence (FRET) assay, Human Calpain 9/NS1. Format: biochemical. As to conditions: read-out: Human Calpain 9/NS1 IC50. The essentials: as §1

Assay [4] deals with Calpain activity in SH-SY5Y cells (SBDP-150). Nature of the assay: SH-SY5Y Spectrin western blot assay (SBDP-150 breakdown product, A23187-induced). Format: cell-based. As to conditions: Homo sapiens; SH-SY5Y cells, A23187-induced SBDP-150, western blot; read-out: SH-SY5Y Spectrin IC50.
Assay [5] deals with Calpain activity in SH-SY5Y cells. Nature of the assay: SH-SY5Y + AMC fluorescence assay (Suc-LLVY-AMC substrate). Format: cell-based. The note with it: read-out: SH-SY5Y + AMC IC50.

Consider `Cn1cc(C(=O)NC(Cc2ccccc2)C(=O)C(N)=O)c(C2CCCCC2)n1` (centres unmarked) [Compound 573, N-(4-amino-3,4-dioxo-1-phenylbutan-2-yl)-3-cyclohexyl-1-methyl-1H-pyrazole-4-carboxamide], for which the IC50 in assay [1] is under 3 µM; in assay [2], under 3 µM; in assay [3] it was under 3 µM; in assay [4], over 25 µM; in assay [5], under 10 µM.

Regarding `C#CC[C@H](NC(=O)c1cn(C)nc1-c1ccccc1F)C(=O)C(N)=O` [Compound 574, (S)—N-(1-amino-1,2-dioxohex-5-yn-3-yl)-3-(2-fluorophenyl)-1-methyl-1H-pyrazole-4-carboxamide], the IC50 is under 3 µM in assay [1]; under 3 µM in assay [2]; under 3 µM in assay [3]; over 25 µM in assay [4]; over 25 µM in assay [5].

As for `NC(=O)C(=O)C(Cc1ccccc1)NC(=O)c1cn(C(F)F)nc1-c1ccc2cccnc2c1` (centres unmarked) [Compound 575, N-(4-amino-3,4-dioxo-1-phenylbutan-2-yl)-1-(difluoromethyl)-3-(quinolin-7-yl)-1H-pyrazole-4-carboxamide], the IC50 in assay [1] was under 3 µM; in assay [2] it was under 3 µM; in assay [3], under 3 µM; in assay [4] it was under 10 µM; in assay [5], over 25 µM.

As for `NC(=O)C(=O)C(Cc1ccccc1)NC(=O)c1cn(C(F)F)nc1-c1cccc2ncccc12` (centres unmarked) [Compound 576, N-(4-amino-3,4-dioxo-1-phenylbutan-2-yl)-1-(difluoromethyl)-3-(quinolin-5-yl)-1H-pyrazole-4-carboxamide], the IC50 in assay [1] was under 3 µM; in assay [2], under 3 µM; in assay [3], under 3 µM; in assay [4], under 10 µM; in assay [5] it was under 10 µM.

With `NC(=O)C(=O)C(Cc1ccccc1)NC(=O)c1cn(C(F)F)nc1-c1ccc2cnccc2c1` (centres unmarked) [Compound 577, N-(4-amino-3,4-dioxo-1-phenylbutan-2-yl)-1-(difluoromethyl)-3-(isoquinolin-6-yl)-1H-pyrazole-4-carboxamide], the IC50 was under 3 µM in assay [1]; under 3 µM in assay [2]; under 3 µM in assay [3]; under 10 µM in assay [4]; under 10 µM in assay [5].

Consider `NC(=O)C(=O)C(Cc1ccccc1)NC(=O)c1nsnc1-c1cccc2c1OC(F)(F)O2` (centres unmarked) [Compound 578, N-(4-amino-3,4-dioxo-1-phenylbutan-2-yl)-4-(2,2-difluorobenzo[d][1,3]dioxol-4-yl)-1,2,5-thiadiazole-3-carboxamide], for which the IC50 in assay [1] was under 3 µM; in assay [2] it was under 3 µM; in assay [3] it was under 3 µM; in assay [4], under 10 µM; in assay [5], under 10 µM.

On to `Cn1cc(C(=O)NC(C(=O)C(N)=O)c2ccc3ccccc3c2)c(-c2ccccc2F)n1` (centres unmarked) [Compound 579, N-(3-amino-1-(naphthalen-2-yl)-2,3-dioxopropyl)-3-(2-fluorophenyl)-1-methyl-1H-pyrazole-4-carboxamide], for which the IC50 in assay [1] was under 3 µM; in assay [2], under 3 µM; in assay [3] it was under 3 µM; in assay [4], over 25 µM; in assay [5], under 10 µM.

Regarding `Cn1cc(C(=O)NC(Cc2cc(F)cc(F)c2)C(=O)C(N)=O)c(-c2ccccc2F)n1` (centres unmarked) [Compound 580, N-(4-amino-1-(3,5-difluorophenyl)-3,4-dioxobutan-2-yl)-3-(2-fluorophenyl)-1-methyl-1H-pyrazole-4-carboxamide], the IC50 was under 3 µM in assay [1]; under 3 µM in assay [2]; under 3 µM in assay [3]; 10 to 25 µM in assay [4]; under 10 µM in assay [5].

`NC(=O)C(=O)C(Cc1ccccc1)NC(=O)c1cn(C(F)F)nc1-c1cnccn1` (centres unmarked) [Compound 581, N-(4-amino-3,4-dioxo-1-phenylbutan-2-yl)-1-(difluoromethyl)-3-(pyrazin-2-yl)-1H-pyrazole-4-carboxamide]: the IC50 was under 3 µM in assay [1]; under 3 µM in assay [2]; under 3 µM in assay [3]; over 25 µM in assay [4]; 10 to 25 µM in assay [5].

Turning to `Cc1cncc(-c2nn(C(F)F)cc2C(=O)NC(Cc2ccccc2)C(=O)C(N)=O)c1` (centres unmarked) [Compound 582, N-(4-amino-3,4-dioxo-1-phenylbutan-2-yl)-1-(difluoromethyl)-3-(5-methylpyridin-3-yl)-1H-pyrazole-4-carboxamide], the IC50 in assay [1] is under 3 µM; in assay [2], under 3 µM; in assay [3] it was under 3 µM; in assay [4] it was under 10 µM; in assay [5], 10 to 25 µM.

With `Cc1c(C(=O)NC(Cc2ccccc2)C(=O)C(N)=O)c(-c2ccccc2)nn1C` (centres unmarked) [Compound 583], the IC50 in assay [1] was under 3 µM; in assay [2], under 3 µM; in assay [3], under 3 µM; in assay [4] it was over 25 µM; in assay [5], over 25 µM.

As for `Cc1cccc(-c2oncc2C(=O)NC(Cc2ccccc2)C(=O)C(N)=O)c1F` (centres unmarked) [Compound 584, N-(4-amino-3,4-dioxo-1-phenylbutan-2-yl)-5-(2-fluoro-3-methylphenyl)isoxazole-4-carboxamide], the IC50 is under 3 µM in assay [1]; under 3 µM in assay [2]; under 3 µM in assay [3]; under 10 µM in assay [4]; 10 to 25 µM in assay [5].

In the case of `NC(=O)C(=O)C(Cc1ccccc1)NC(=O)c1cn(C(F)F)nc1-c1cncc(F)c1` (centres unmarked) [Compound 586, N-(4-amino-3,4-dioxo-1-phenylbutan-2-yl)-1-(difluoromethyl)-3-(5-fluoropyridin-3-yl)-1H-pyrazole-4-carboxamide], the IC50 in assay [1] is under 3 µM; in assay [2], under 3 µM; in assay [3] it was under 3 µM; in assay [4] it was 10 to 25 µM; in assay [5], 10 to 25 µM.
